What was measured:
[1] = tested on: HCV replicon RNA (GenBank Accession No. AJ242654); assay: HCV Replicon Assay (replicon RNA reduction and/or Fluc reporter signal); type: cell-based, Hepatitis C virus; details: Hepatitis C virus, 72 h, replicon-containing cells cultured with test compound for up to 3 days
In short: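 Bicistronic replicon-containing cells cultured with compound for up to 3 days, with interferon as positive control. Inhibition quantified by replicon RNA reduction and/or Fluc reporter signal; IC50 values generally derived from replicon RNA reduction.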

Row | SMILES | melting point [°C] | IC50 [1] [nM]
1 | C[C@H](NS(=O)(=O)c1ccc(-c2c(C#N)c3cc(OC(F)F)cnc3n2C2CCC2)cc1)C(F)(F)F [Cpd 198, 4-[3-cyano-1-cyclobutyl-5-(difluoromethoxy)-1H-pyrrolo[2,3-b]pyridin-2-yl]-N-[(2S)-1,1,1-trifluoropropan-2-yl]benzenesulfonamide] | 155 to 156 | 500 to 2000
2 | C[C@@H](NS(=O)(=O)c1ccc(-c2c(C#N)c3cc(OC(F)F)cnc3n2C2CCC2)cc1)C(F)(F)F [Cpd 199, 4-[3-cyano-1-cyclobutyl-5-(difluoromethoxy)-1H-pyrrolo[2,3-b]pyridin-2-yl]-N-[(2R)-1,1,1-trifluoropropan-2-yl]benzenesulfonamide] | 199 to 200 | < 500
3 | CC(C)(NS(=O)(=O)c1ccc(-c2c(C#N)c3cc(OC(F)F)cnc3n2C2CCC2)nc1)C(F)(F)F [Cpd 201, 6-[3-cyano-1-cyclobutyl-5-(difluoromethoxy)-1H-pyrrolo[2,3-b]pyridin-2-yl]-N-(1,1,1-trifluoro-2-methylpropan-2-yl)pyridine-3-sulfonamide] | 168 to 169 | < 500
4 | CCOc1cnc2c(c1)c(C#N)c(-c1ccc(S(=O)(=O)N[C@@H](C)C(F)(F)F)cn1)n2C1CCC1 [Cpd 202, 6-(3-cyano-1-cyclobutyl-5-ethoxy-1H-pyrrolo[2,3-b]pyridin-2-yl)-N-[(2S)-1,1,1-trifluoropropan-2-yl]pyridine-3-sulfonamide] | 181 to 182 | < 500
5 | CCOc1cnc2c(c1)c(C#N)c(-c1ccc(S(=O)(=O)N[C@H](C)C(F)(F)F)cn1)n2C1CCC1 [Cpd 203, 6-(3-cyano-1-cyclobutyl-5-ethoxy-1H-pyrrolo[2,3-b]pyridin-2-yl)-N-[(2R)-1,1,1-trifluoropropan-2-yl]pyridine-3-sulfonamide] | 180 to 181 | < 500
6 | CCCOc1cnc2c(c1)c(C#N)c(-c1ccc(S(=O)(=O)N[C@@H](C)C(F)(F)F)cn1)n2C1CCC1 [Cpd 204, 6-(3-cyano-1-cyclobutyl-5-propoxy-1H-pyrrolo[2,3-b]pyridin-2-yl)-N-[(2S)-1,1,1-trifluoropropan-2-yl]pyridine-3-sulfonamide] | 170 to 171 | < 500
7 | CCCOc1cnc2c(c1)c(C#N)c(-c1ccc(S(=O)(=O)N[C@H](C)C(F)(F)F)cn1)n2C1CCC1 [Cpd 205, 6-(3-cyano-1-cyclobutyl-5-propoxy-1H-pyrrolo[2,3-b]pyridin-2-yl)-N-[(2R)-1,1,1-trifluoropropan-2-yl]pyridine-3-sulfonamide] | 169 to 170 | < 500
8 | Cc1cnc2c(C#N)c(-c3ccc(S(=O)(=O)N[C@@H](C)C(F)(F)F)cn3)n(C3CCC3)c2c1 [Cpd 206, 6-(3-cyano-1-cyclobutyl-6-methyl-1H-pyrrolo[3,2-b]pyridin-2-yl)-N-[(2S)-1,1,1-trifluoropropan-2-yl]pyridine-3-sulfonamide] | 217 to 218 | 500 to 2000
9 | Cc1cnc2c(C#N)c(-c3ccc(S(=O)(=O)N[C@H](C)C(F)(F)F)cn3)n(C3CCC3)c2c1 [Cpd 207, 6-(3-cyano-1-cyclobutyl-6-methyl-1H-pyrrolo[3,2-b]pyridin-2-yl)-N-[(2R)-1,1,1-trifluoropropan-2-yl]pyridine-3-sulfonamide] | 207 to 209 | 500 to 2000
10 | Cc1cnc2c(C#N)c(-c3ccc(S(=O)(=O)NC4(C(F)(F)F)CC4)cn3)n(C3CCC3)c2c1 [Cpd 208, 6-(3-cyano-1-cyclobutyl-6-methyl-1H-pyrrolo[3,2-b]pyridin-2-yl)-N-[1-(trifluoromethyl)cyclopropyl]pyridine-3-sulfonamide] | 248 to 249 | < 500
11 | Cc1cnc2c(C#N)c(-c3ccc(S(=O)(=O)NC(C)(C)C(F)(F)F)cn3)n(C3CCC3)c2c1 [Cpd 209, 6-(3-cyano-1-cyclobutyl-6-methyl-1H-pyrrolo[3,2-b]pyridin-2-yl)-N-(1,1,1-trifluoro-2-methylpropan-2-yl)pyridine-3-sulfonamide] | 238 to 240 | < 500
12 | Cc1cnc2c(C#N)c(-c3ccc(S(=O)(=O)NC4(C)CC4)cn3)n(C3CCC3)c2c1 [Cpd 210, 6-(3-cyano-1-cyclobutyl-6-methyl-1H-pyrrolo[3,2-b]pyridin-2-yl)-N-(1-methylcyclopropyl)pyridine-3-sulfonamide] | 187 to 188 | < 500
13 | Cc1cnc2c(C#N)c(-c3ccc(S(=O)(=O)NC(C)(C)C)cn3)n(C3CCC3)c2c1 [Cpd 211, N-tert-butyl-6-(3-cyano-1-cyclobutyl-6-methyl-1H-pyrrolo[3,2-b]pyridin-2-yl)pyridine-3-sulfonamide] | 227 to 229 | < 500
14 | Cc1cnc2c(C#N)c(-c3ccc(S(=O)(=O)NC(CF)CF)cn3)n(C3CCC3)c2c1 [Cpd 212, 6-(3-cyano-1-cyclobutyl-6-methyl-1H-pyrrolo[3,2-b]pyridin-2-yl)-N-(1,3-difluoropropan-2-yl)pyridine-3-sulfonamide] | 219 to 221 | < 500
15 | Cc1cnc2c(C#N)c(-c3ncc(S(=O)(=O)NC(CF)CF)cn3)n(C3CCC3)c2c1 [Cpd 213, 2-(3-cyano-1-cyclobutyl-6-methyl-1H-pyrrolo[3,2-b]pyridin-2-yl)-N-(1,3-difluoropropan-2-yl)pyrimidine-5-sulfonamide] | 269 to 271 | < 500
16 | Cc1cnc2c(C#N)c(-c3ncc(S(=O)(=O)NC(C)C)cn3)n(C3CCC3)c2c1 [Cpd 214, 2-(3-cyano-1-cyclobutyl-6-methyl-1H-pyrrolo[3,2-b]pyridin-2-yl)-N-(propan-2-yl)pyrimidine-5-sulfonamide] | 278 to 280 | < 500
17 | Cc1cnc2c(C#N)c(-c3ncc(S(=O)(=O)N[C@@H](C)C(F)(F)F)cn3)n(C3CCC3)c2c1 [Cpd 215, 2-(3-cyano-1-cyclobutyl-6-methyl-1H-pyrrolo[3,2-b]pyridin-2-yl)-N-[(2S)-1,1,1-trifluoropropan-2-yl]pyrimidine-5-sulfonamide] | 268 to 269 | 500 to 2000
18 | Cc1cnc2c(C#N)c(-c3ccc(S(=O)(=O)N[C@@H](C)C(F)(F)F)cc3)n(C3CCC3)c2c1 [Cpd 216, 4-(3-cyano-1-cyclobutyl-6-methyl-1H-pyrrolo[3,2-b]pyridin-2-yl)-N-[(2S)-1,1,1-trifluoropropan-2-yl]benzenesulfonamide] | 245 to 246 | 500 to 2000
19 | Cc1cnc2c(C#N)c(-c3ccc(S(=O)(=O)N[C@H](C)C(F)(F)F)cc3)n(C3CCC3)c2c1 [Cpd 217, 4-(3-cyano-1-cyclobutyl-6-methyl-1H-pyrrolo[3,2-b]pyridin-2-yl)-N-[(2R)-1,1,1-trifluoropropan-2-yl]benzenesulfonamide] | 252 to 253 | 2000 to 5000
20 | CC(C)Oc1cnc2c(c1)c(C#N)c(-c1ccc(S(=O)(=O)N[C@@H](C)C(F)(F)F)cn1)n2C1CCC1 [Cpd 218, 6-[3-cyano-1-cyclobutyl-5-(propan-2-yloxy)-1H-pyrrolo[2,3-b]pyridin-2-yl]-N-[(2S)-1,1,1-trifluoropropan-2-yl]pyridine-3-sulfonamide] | 168 to 169 | < 500

— patent publication US9593108B2, “Compounds and methods for antiviral treatment” (PTC Therapeutics, Inc., priority 2009, dated 2017)
